Test systems include A549 NSCLC; CCRF-CEM leukemia; HCT-15 colon; HS 578T breast; MCF7 breast; SK-MEL-2 melanoma; SNB-19 CNS; SNB-75 CNS; SW-620 colon; T-47D breast.
Common to all, as to assay: NCI-60 cell line screen, 48 h

Where “and” joins values, the source holds several entries; their conditions need not be identical. Identical values can stand only once.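 Five compound concentrations were applied to cells in 96-well plates for 48 hours; endpoints were derived by simple linear interpolation of the resulting dose-response curve. GI50 = concentration required for 50% inhibition of growth. Definition used: TGI = concentration required for complete inhibition of growth.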

Turning to `C=C1C(=O)O[C@H]2[C@H]1CC/C(Cn1cc(Cn3ccc4cc(Cl)ccc43)nn1)=C\CC[C@@]1(C)O[C@@H]21`, the GI50 was 10.2 µM in the assay on A549 NSCLC; 0.338 µM with CCRF-CEM leukemia; 1.14 µM in the assay with HCT-15 colon; 2.5 µM with HS 578T breast; 1.25 µM in the assay with MCF7 breast; 1.61 µM with SK-MEL-2 melanoma. Further, the GI50 with SNB-19 CNS is 1.97 µM; in the assay on SNB-75 CNS, 1.27 µM; in the assay with SW-620 colon it was 1.13 µM; in the assay with T-47D breast, 1.72 µM. Also, the TGI in the assay with A549 NSCLC was found to be 24.8 µM; in the assay on CCRF-CEM leukemia it was 1.18 µM; with HCT-15 colon, 2.66 µM; in the assay with HS 578T breast, 6.68 µM; in the assay with MCF7 breast, 3.02 µM; with SK-MEL-2 melanoma, 3.72 µM. The TGI with SNB-19 CNS is 4.49 µM; in the assay on SNB-75 CNS it was 4.52 µM; in the assay on SW-620 colon, 2.78 µM; in the assay on T-47D breast, 4.32 µM.

Take `CCSc1nc(=S)[nH]c2[nH]ncc12`: the GI50 in the assay on A549 NSCLC was above 100 µM; in the assay with CCRF-CEM leukemia, 59 µM; in the assay with HCT-15 colon it was above 100 µM; in the assay on HS 578T breast, 26 µM; in the assay on MCF7 breast, 66.8 µM; in the assay with SK-MEL-2 melanoma, above 100 µM. The GI50 with SNB-19 CNS is above 100 µM; with SNB-75 CNS it was above 100 µM; with SW-620 colon, 97.8 µM; in the assay on T-47D breast, 86.1 µM. The TGI in the assay on A549 NSCLC was above 100 µM; with CCRF-CEM leukemia it was above 100 µM; in the assay on HCT-15 colon, above 100 µM; in the assay with HS 578T breast, 60.8 µM; in the assay on MCF7 breast, above 100 µM; in the assay on SK-MEL-2 melanoma it was above 100 µM. Further, the TGI in the assay with SNB-19 CNS, with SNB-75 CNS, in the assay with SW-620 colon and in the assay on T-47D breast was above 100 µM in each case.

As for `CC1=Cc2cc3[n-]c(cc4nc(cc5[n-]c(cc1n2)c(C)c5CCC(=O)O)C(CCC(=O)O)=C4C)cc3C.[Cu+2]`, the GI50 with A549 NSCLC is > 1 µM and 70.9 µM; in the assay with CCRF-CEM leukemia, > 1 µM and 12.1 µM; with HCT-15 colon, > 1 µM and 52.7 µM; in the assay on HS 578T breast, 38.7 µM; in the assay on MCF7 breast, 63.7 µM; in the assay with SK-MEL-2 melanoma it was > 1 µM and 10.9 µM. The GI50 in the assay on SNB-19 CNS was > 1 µM and 11.9 µM; in the assay with SNB-75 CNS, > 1 µM and 8.39 µM; in the assay on SW-620 colon it was above 47.7 µM; with T-47D breast, 47.6 µM. Besides, the TGI with A549 NSCLC is above 100 µM; in the assay with CCRF-CEM leukemia it was above 68.5 µM; with HCT-15 colon it was above 86.7 µM; with HS 578T breast it was above 100 µM; with MCF7 breast, above 100 µM; in the assay with SK-MEL-2 melanoma, above 81.7 µM. Besides, the TGI in the assay on SNB-19 CNS was > 1 µM and 32.9 µM; with SNB-75 CNS, > 1 µM and 18.7 µM; with SW-620 colon it was above 79.6 µM; in the assay with T-47D breast, above 100 µM.

For `COc1cc(C(=O)O)ccc1NC(=O)[C@@H]1N[C@@H](CC(C)(C)C)[C@](C#N)(c2ccc(Cl)cc2F)[C@H]1c1cccc(Cl)c1F`, the GI50 in the assay with A549 NSCLC was 0.138 µM; in the assay on CCRF-CEM leukemia, 2.53 µM; with HCT-15 colon it was 2.93 µM; in the assay with HS 578T breast, 3.9 µM; in the assay on MCF7 breast, 0.0328 µM; in the assay with SK-MEL-2 melanoma, 2.96 µM. The GI50 was 5.6 µM in the assay with SNB-19 CNS, 3.35 µM in the assay with SNB-75 CNS, 3.02 µM in the assay on SW-620 colon and 5.23 µM in the assay on T-47D breast. The TGI with A549 NSCLC was 8.21 µM; with CCRF-CEM leukemia, above 26.3 µM; with HCT-15 colon, 10.1 µM; in the assay with HS 578T breast, 15.8 µM; with MCF7 breast, 4.12 µM; in the assay on SK-MEL-2 melanoma it was 10 µM. In addition, the TGI with SNB-19 CNS is 31.2 µM; in the assay with SNB-75 CNS it was 20.9 µM; in the assay with SW-620 colon, above 26.3 µM; in the assay with T-47D breast, 43.7 µM.

Consider `COc1cc2c3c(n(CCCn4ccnc4)c(=O)c2cc1OC)-c1ccccc1C3=O`, for which the GI50 in the assay with A549 NSCLC is below 0.0337 µM; in the assay with CCRF-CEM leukemia, below 0.01 µM; in the assay with HCT-15 colon, 0.159 µM; in the assay with HS 578T breast it was 11.6 µM; with MCF7 breast, below 0.02 µM; in the assay with SK-MEL-2 melanoma, 0.927 µM. The GI50 was below 0.0285 µM in the assay with SNB-19 CNS, 0.0681 µM in the assay with SNB-75 CNS, below 0.0206 µM in the assay on SW-620 colon and 0.0357 µM in the assay on T-47D breast. Besides, the TGI was 0.413 µM in the assay on A549 NSCLC; 2.37 µM in the assay with HCT-15 colon; above 100 µM in the assay on HS 578T breast; above 43.4 µM in the assay on MCF7 breast; 17.3 µM with SK-MEL-2 melanoma; above 69 µM with SNB-19 CNS. Further, the TGI was 4.33 µM in the assay on SNB-75 CNS and 0.509 µM in the assay with T-47D breast.

For `COc1ccc(C(=O)c2ccc(OC)cc2OC)cc1`, the GI50 is 5.55 µM in the assay with A549 NSCLC; 3.23 µM in the assay on CCRF-CEM leukemia; 3.66 µM with HCT-15 colon; 3.5 µM with HS 578T breast; 2.75 µM in the assay on MCF7 breast; 2.89 µM in the assay on SK-MEL-2 melanoma. Besides, the GI50 in the assay with SNB-19 CNS is 6.12 µM; with SNB-75 CNS it was 1.76 µM; in the assay on SW-620 colon, 2.96 µM; in the assay with T-47D breast it was 3.09 µM. The TGI was above 100 µM with A549 NSCLC; above 100 µM in the assay on CCRF-CEM leukemia; above 100 µM with HCT-15 colon; 31.4 µM in the assay with HS 578T breast; above 100 µM with MCF7 breast; 12.2 µM with SK-MEL-2 melanoma. Besides, the TGI with SNB-19 CNS is above 100 µM; in the assay with SNB-75 CNS, 5.57 µM; with SW-620 colon it was above 100 µM; in the assay on T-47D breast, above 100 µM.

As for `O=[N+]([O-])c1ccccc1/C=C/C=C1c2ccccc2-c2ccccc21`, the GI50 with A549 NSCLC was above 100 µM; with CCRF-CEM leukemia, above 100 µM; in the assay with HCT-15 colon, above 100 µM; in the assay on HS 578T breast, above 100 µM; in the assay with MCF7 breast it was 31.5 µM; with SK-MEL-2 melanoma it was above 100 µM. Moreover, the GI50 in the assay with SNB-19 CNS, in the assay with SNB-75 CNS, with SW-620 colon and in the assay on T-47D breast was above 100 µM throughout. The TGI in the assay on A549 NSCLC, in the assay on CCRF-CEM leukemia, in the assay on HCT-15 colon, in the assay on HS 578T breast, in the assay with MCF7 breast and in the assay on SK-MEL-2 melanoma was above 100 µM throughout. In addition, the TGI with SNB-19 CNS, in the assay on SNB-75 CNS, in the assay with SW-620 colon and in the assay on T-47D breast was above 100 µM each time.

For the origin of these results see PubChem BioAssay (NCI).
